Data reported in patent publication US20120232038A1, “CRYSTALLINE FORMS OF (3R, 3AS, 6AR) - HEXAHYDROFURO [2,3-B] FURAN-3-YL (1S,2R) - (1-{4-[ (DIETHOXYPHOSPHORYL) METHOXY] PHENY1}-3-HYDROXY-4- [4-METHOXY-N- (2-METHYLPROPYL) BENZENESUL - FONAMIDO] BUTAN-2-YL) CARBAMATE” (Gilead Sciences, Inc., priority 2009, published 2012).

Assays:
Assay type in all cases: physicochemical
[1] = Moisture uptake of Compound I amorphous material at room temperature under controlled relative humidity
Source text: (§1) Other benefits that crystalline Form I offers include but are not limited to purification and isolation of the crystalline form with respect to the solution and facilitation of storage and handling during the formulation development and manufacturing of drug product.

[2] = Form stability on extended exposure to water (water slurry, XRPD); settings: slurried in water, 2 week sample, XRPD (FIG. 6)
Protocol: Approximately 15-50 mg of Compound I are weighed and transferred to each of fifteen vials each equipped with a mini magnetic stir bar. The starting material used for this experiment is an amorphous solid based on the X-ray powder diffraction (XRPD) pattern (See FIG. 1). To each vial is added 1 mL of various solvents. The slurries are allowed to stir for two weeks at room temperature (˜22° C.). XRPD characterization of the excess solids were performed at ˜1 week and ˜2 week time points. A sample of 300 μL of the suspension is removed from each vial, transferred to a centrifuge filter (Costar, 0.45 micron) and centrifuged at 1000 rpm for 2 minutes. Solids in the wet cake form are analyzed using XRPD analysis (PANalytical X'Pert PRO X-ray powder diffractometer). This diffractometer uses Cu-Ka radiation and it operates under reflection mode. Scan range is from 2 to 40 degree 2 theta. After air drying the small sample, (XRPD) analysis is performed again to monitor any change in the diffraction pattern between the wet and dry material. TGA is run on the saturated solution to determine the solubility of the equilibrating solids in the solvent. […]

[3] = Dynamic vapor sorption of Compound I crystalline Form I
Source text: as §1

Row | Structure (SMILES) | Weight gain after 5 days ([1]; 75% Relative Humidity) [%] | Weight gain after 11 days ([1]; 75% Relative Humidity) [%] | Weight gain after 5 days ([1]; 97% Relative Humidity) [%] | solid form after extended exposure to water [2] | hygroscopicity [3] | water absorbed ([3]; 90% relative humidity) [%]
1 | CCOP(=O)(COc1ccc(CC(NC(=O)OC2CO[C@H]3OCC[C@@H]23)[C@H](O)CN(CC(C)C)S(=O)(=O)c2ccc(OC)cc2)cc1)OCC (stereo partly drawn) [Compound I amorphous material] | 0.6 | 1.0 | 3.8 | – | – | –
2 | CCOP(=O)(COc1ccc(CC(NC(=O)OC2CO[C@H]3OCC[C@@H]23)[C@H](O)CN(CC(C)C)S(=O)(=O)c2ccc(OC)cc2)cc1)OCC (stereo partly drawn) [Form I] | – | – | – | remains as the same form | not hygroscopic | 0.4
